Several values for one entry are separate records, joined by “and”; a condition that tells them apart may be missing. Equal values may be shown once.
Tests used:
E0771 breast tumors = assay: Breast tumor growth and survival studies; type: in vivo, mice
Procedure: Breast tumor growth and survival studies: Mice bearing orthotopic E0771 or 4T1 breast tumors were split into treatment groups, time-matched for time after implantation and size-matched for tumor volume at this time (110-111 mm^3 in E0771, in 4T1). […] The primary tumors were then measured every 2 days, beginning on day 0, using calipers. Tumor growth was quantified using the time for each to reach double its initial volume Animal survival was quantified based on time of death after initiation of treatment or time to reach excessive tumor burden (>1000 mm^3).

Mu89 tumors = assay: Collagen I immunostaining of tumor sections; type: in vivo, SCID mice; conditions: 20 mg/kg/day, two weeks (FIG. 5D)
Procedure: (§1) Human soft tissue sarcoma (HSTS26T) and human melanoma (Mu89) tumors were grown subcutaneously in the legs and dorsal skin fold chamber of severe combined immunodeficient (SCID) mice (Leunig M, et al. (1992) Cancer Res 52:6553-6560). Human pancreatic adenocarcinoma cells (L3.6PL) were grown orthotopically in the pancreas of SCID mice. L3.6PL tumors were induced with a sub-capsular injection of one million cells in the tail of the pancreas. Tumor sizes were monitored in spontaneous FVB/N-Tg (MMTV-PyVT) 634MU1/J mice and tumors selected for treatment when they reached a size of 4 to 6 mm in diameter (Guy C T et al. (1992) Mol Cell Biol 12:954-961).
(§2) Cozaar (losartan potassium) tablets were ground using a mortar and pestle. The powder was then dissolved in water to obtain a concentration of 2.5 mg/ml. The solution was then filtered and stored in a sterile container.
(§3) Frozen sections were cut into 10 μm sections for immunohistochemistry and imaging. Collagen I was detected using the LF-67 antibody (1:100 dilution) with a previously described protocol (Znati C A, et al. (2003) Clin Cancer Res 9:5508-5513). TSP-1 was detected with a goat anti-human antibody (1:50 dilution), which cross-reacts with mice (sc-12312, Santa Cruz Biotechnology Inc., Santa Cruz, Calif.). For collagen and TSP-1 analysis, images at 20× magnification were taken randomly from each slide. The collagen and TSP-1 content was determined by measuring the number of pixels above a threshold value that was set based on the average intensity value of pixels from all slides under analysis. The background-signal intensity for both collagen I and thrombospondin-1 immunostaining was low and uniform.

[1] = tested on: L3.6 pl orthotopic pancreatic tumors; assay: Collagen I immunostaining of tumor sections; type: in vivo, SCID mice; conditions: 20 mg/kg/day, two weeks (FIG. 5B)
Procedure: as §1, §2, §3

HSTS26T tumors = assay: Collagen I immunostaining of tumor sections; type: in vivo, SCID mice
Procedure: as §1, §2, §3

Pan-02 pancreatic tumors = assay: Solid stress (tumor opening technique); set-up: species or system C57BL/6 mouse; conditions: mouse, in vivo
Description: FIG. 25 is a bar graph showing that angiotensin inhibitors decrease stress in multiple tumor models. Solid stress levels in tumors after angiotensin inhibition using losartan are shown. […] Animal numbers n=10-11 (4T1 stress), n=4-8 (Pan-02 stress).
The mechanism responsible for the increase in tumor vessel perfusion by losartan was investigated. Desmoplasia, high stromal cell and matrix density, is a major contributor to the solid stress accumulation that compresses vessels (Stylianopoulos T, et al., Growth-induced mechanical stress in murine and human tumors: causes, consequences and remedies. under review. 2012). […] Moreover, losartan decreased collagen I concentration, measured based on staining intensity, in E0771 and AK4.4 tumors (FIGS. 24B-24C). […] Next, solid stress in these tumors was measured using recently established technique described in Stylianopoulos T, et al., Growth-induced mechanical stress in murine and human tumors: causes, consequences and remedies. under review. […]
Solid stress: Solid stress was measured using the tumor opening technique as described previously (Stylianopoulos T, et al., Growth-induced mechanical stress in murine and human tumors: causes, consequences and remedies. under review. 2012). […] Subsequently, each tumor was excised, washed with Hanks' Balanced Salt Solution (HBSS) and its three dimensions were measured. […]

SMILES: CCCCc1nc(Cl)c(CO)n1Cc1ccc(-c2ccccc2-c2nn[nH]n2)cc1 [losartan]
- tumor growth rate (E0771 breast tumors; agent given alone (losartan 40 mg/kg daily or doxorubicin 2 mg/kg every three days)): no significant effect
- median survival (E0771 breast tumors; combination of losartan and doxorubicin, saline alone 12 days): 23.5 days
- survival (E0771 breast tumors; losartan alone): did not shorten survival
- tumor growth (E0771 breast tumors; losartan in combination with doxorubicin): significantly delayed
- reduction in collagen I immunostaining (Mu89 tumors): 20%
- reduction in collagen I immunostaining [1]: 50%
- reduction in collagen I immunostaining (HSTS26T tumors; 20 mg/kg/day, dose response (FIG. 3), vs saline): 42%
- reduction in collagen I immunostaining (HSTS26T tumors; 20 mg/kg/day, two weeks (FIG. 5D)): 44%
- reduction in collagen I immunostaining (HSTS26T tumors; 60 mg/kg/day, dose response (FIG. 3), vs saline): 63% and 65%
- solid stress (Pan-02 pancreatic tumors): reduces solid stress
